Assay results taken from PubChem BioAssay AID2060484 (Molecular Pharmacology Branch, DTP, NCI, 2025).

System: SUM149PT spheroids with HUVEC/MSC, viability
Assay: Anticancer human tumor SUM149PT cell line growth inhibition [GQUAD];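 note: spheroids exposed to drugs for seven days before readout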;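 for viability, T/C: percent viability relative to DMSO vehicle control taken as 100%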
Settings: for IC50: curve of first compound; for viability, T/C: stronger effect = lower value
Procedure, shortened: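 Multi-cell-type spheroids of tumor cells with HUVEC and mesenchymal stem cells, treated with drug combinations. Concentrations descend in half-log steps from near clinical Cmax, or from 10 microM where Cmax is unknown; viability read-out.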

[1] = second compound 0.0316 µM, first compound 0.0316 µM
[2] = second compound 0.0316 µM, first compound 0.1 µM
[3] = second compound 0.0316 µM, first compound 0.316 µM
[4] = second compound 0.0316 µM, first compound 1 µM
[5] = second compound 0.0316 µM, first compound 3.16 µM
[6] = second compound 0.0316 µM, first compound 10 µM
[7] = second compound 0.1 µM, first compound 0.0316 µM
[8] = second compound 0.1 µM, first compound 0.1 µM
[9] = second compound 0.1 µM, first compound 0.316 µM
[10] = second compound 0.1 µM, first compound 1 µM
[11] = second compound 0.1 µM, first compound 3.16 µM
[12] = second compound 0.1 µM, first compound 10 µM
[13] = second compound 0.316 µM, first compound 0.0316 µM
[14] = second compound 0.316 µM, first compound 0.1 µM
[15] = second compound 0.316 µM, first compound 0.316 µM
[16] = second compound 0.316 µM, first compound 1 µM
[17] = second compound 0.316 µM, first compound 3.16 µM
[18] = second compound 0.316 µM, first compound 10 µM
[19] = second compound 1 µM, first compound 0.0316 µM
[20] = second compound 1 µM, first compound 0.1 µM
[21] = second compound 1 µM, first compound 0.316 µM
[22] = second compound 1 µM, first compound 1 µM
[23] = second compound 1 µM, first compound 3.16 µM
[24] = second compound 1 µM, first compound 10 µM
[25] = second compound 3.16 µM, first compound 0.0316 µM
[26] = second compound 3.16 µM, first compound 0.1 µM
[27] = second compound 3.16 µM, first compound 0.316 µM
[28] = second compound 3.16 µM, first compound 1 µM
[29] = second compound 3.16 µM, first compound 3.16 µM
[30] = second compound 3.16 µM, first compound 10 µM
[31] = second compound 10 µM, first compound 0.0316 µM
[32] = second compound 10 µM, first compound 0.1 µM
[33] = second compound 10 µM, first compound 0.316 µM
[34] = second compound 10 µM, first compound 1 µM
[35] = second compound 10 µM, first compound 3.16 µM
[36] = second compound 10 µM, first compound 10 µM

O=C(c1cc(Cc2n[nH]c(=O)c3ccccc23)ccc1F)N1CCN(C(=O)C2CC2)CC1 + Cc1cnc(CNC(=O)c2c(=O)c3ccc(N4CCCN(C)CC4)nc3n3c2sc2ccccc23)cn1
IC50 (second compound 0.0316 µM): 9980 nM
IC50 (second compound 0.1 µM): > 10000 nM
IC50 (second compound 0.316 µM): 5010 nM
IC50 (second compound 1 µM): < 31.6 nM
IC50 (second compound 3.16 µM): < 31.6 nM
IC50 (second compound 10 µM): < 31.6 nM
viability, T/C [1]: 87.6%
viability, T/C [2]: 72.1%
viability, T/C [3]: 83.3%
viability, T/C [4]: 88.3%
viability, T/C [5]: 80.2%
viability, T/C [6]: 50%
viability, T/C [7]: 63.6%
viability, T/C [8]: 70.1%
viability, T/C [9]: 65.8%
viability, T/C [10]: 66.4%
viability, T/C [11]: 61.4%
viability, T/C [12]: 44.5%
viability, T/C [13]: 53.2%
viability, T/C [14]: 58.5%
viability, T/C [15]: 55.4%
viability, T/C [16]: 54.5%
viability, T/C [17]: 53.6%
viability, T/C [18]: 44%
viability, T/C [19]: 43%
viability, T/C [20]: 47%
viability, T/C [21]: 47.1%
viability, T/C [22]: 48.4%
viability, T/C [23]: 48.5%
viability, T/C [24]: 42.7%
viability, T/C [25]: 35.4%
viability, T/C [26]: 42.2%
viability, T/C [27]: 40.3%
viability, T/C [28]: 38.7%
viability, T/C [29]: 39.5%
viability, T/C [30]: 37.6%
viability, T/C [31]: 10.2%
viability, T/C [32]: 12.1%
viability, T/C [33]: 27.6%
viability, T/C [34]: 30.5%
viability, T/C [35]: 22.6%
viability, T/C [36]: 2.16%

O=C(c1cc(Cc2n[nH]c(=O)c3ccccc23)ccc1F)N1CCN(C(=O)C2CC2)CC1 + CN(C)c1ccc(Nc2c3ccc(NC(=O)CCN4CCCC4)cc3nc3cc(NC(=O)CCN4CCCC4)ccc23)cc1
IC50 (second compound 0.0316 µM): > 10000 nM
IC50 (second compound 0.1 µM): > 10000 nM
IC50 (second compound 0.316 µM): > 10000 nM
IC50 (second compound 1 µM): > 10000 nM
IC50 (second compound 3.16 µM): > 10000 nM
IC50 (second compound 10 µM): > 10000 nM
viability, T/C [1]: 104%
viability, T/C [2]: 103%
viability, T/C [3]: 94.5%
viability, T/C [4]: 100%
viability, T/C [5]: 102%
viability, T/C [6]: 88.8%
viability, T/C [7]: 95%
viability, T/C [8]: 101%
viability, T/C [9]: 102%
viability, T/C [10]: 104%
viability, T/C [11]: 98%
viability, T/C [12]: 81.4%
viability, T/C [13]: 87.6%
viability, T/C [14]: 93.5%
viability, T/C [15]: 101%
viability, T/C [16]: 101%
viability, T/C [17]: 111%
viability, T/C [18]: 82%
viability, T/C [19]: 85.3%
viability, T/C [20]: 86.6%
viability, T/C [21]: 89.9%
viability, T/C [22]: 104%
viability, T/C [23]: 92.4%
viability, T/C [24]: 66.3%
viability, T/C [25]: 93.7%
viability, T/C [26]: 91%
viability, T/C [27]: 90.5%
viability, T/C [28]: 94.2%
viability, T/C [29]: 95.2%
viability, T/C [30]: 70.5%
viability, T/C [31]: 78.8%
viability, T/C [32]: 81.9%
viability, T/C [33]: 81.9%
viability, T/C [34]: 90.4%
viability, T/C [35]: 86.3%
viability, T/C [36]: 64.5%

CCc1c2c(nc3ccc(O)cc13)-c1cc3c(c(=O)n1C2)COC(=O)[C@]3(O)CC + CN(C)c1ccc(Nc2c3ccc(NC(=O)CCN4CCCC4)cc3nc3cc(NC(=O)CCN4CCCC4)ccc23)cc1
IC50 (second compound 0.0316 µM): 11.9 nM
IC50 (second compound 0.1 µM): 14.8 nM
IC50 (second compound 0.316 µM): 6.28 nM
IC50 (second compound 1 µM): 6.73 nM
IC50 (second compound 3.16 µM): 5.8 nM
IC50 (second compound 10 µM): 6.81 nM
viability, T/C (second compound 0.0316 µM, first compound 0.000999 µM): 80%
viability, T/C (second compound 0.0316 µM, first compound 0.00316 µM): 44%
viability, T/C (second compound 0.0316 µM, first compound 0.00999 µM): 54.6%
viability, T/C [1]: 45.9%
viability, T/C (second compound 0.0316 µM, first compound 0.0999 µM): 38.9%
viability, T/C [3]: 20.7%
viability, T/C (second compound 0.1 µM, first compound 0.000999 µM): 70.2%
viability, T/C (second compound 0.1 µM, first compound 0.00316 µM): 45.6%
viability, T/C (second compound 0.1 µM, first compound 0.00999 µM): 52.8%
viability, T/C [7]: 48.1%
viability, T/C (second compound 0.1 µM, first compound 0.0999 µM): 41.6%
viability, T/C [9]: 23.5%
viability, T/C (second compound 0.316 µM, first compound 0.000999 µM): 64.1%
viability, T/C (second compound 0.316 µM, first compound 0.00316 µM): 45.7%
viability, T/C (second compound 0.316 µM, first compound 0.00999 µM): 45.3%
viability, T/C [13]: 47.5%
viability, T/C (second compound 0.316 µM, first compound 0.0999 µM): 37.7%
viability, T/C [15]: 26%
viability, T/C (second compound 1 µM, first compound 0.000999 µM): 63.8%
viability, T/C (second compound 1 µM, first compound 0.00316 µM): 42.2%
viability, T/C (second compound 1 µM, first compound 0.00999 µM): 47.2%
viability, T/C [19]: 48.8%
viability, T/C (second compound 1 µM, first compound 0.0999 µM): 35.5%
viability, T/C [21]: 23.5%
viability, T/C (second compound 3.16 µM, first compound 0.000999 µM): 64.1%
viability, T/C (second compound 3.16 µM, first compound 0.00316 µM): 42.1%
viability, T/C (second compound 3.16 µM, first compound 0.00999 µM): 47.2%
viability, T/C [25]: 46.1%
viability, T/C (second compound 3.16 µM, first compound 0.0999 µM): 35.6%
viability, T/C [27]: 23.5%
viability, T/C (second compound 10 µM, first compound 0.000999 µM): 67.2%
viability, T/C (second compound 10 µM, first compound 0.00316 µM): 39.2%
viability, T/C (second compound 10 µM, first compound 0.00999 µM): 49.1%
viability, T/C [31]: 46.8%
viability, T/C (second compound 10 µM, first compound 0.0999 µM): 37.2%
viability, T/C [33]: 22.4%
